What was measured:
Conditions in all cases: amount of applied herbicide 320 g/ha
velvetleaf = assay: Test Example 4: herbicidal effect by soil treatment (Table 19, symbol M); assay type: in vivo, velvetleaf (Abutilon theophrasti)
In short: (§1)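 Herbicidal effect was rated 3 weeks after treatment, using the scoring criteria of an earlier test. The compound, formulated as an emulsion and diluted in water to a set herbicide amount, had been sprayed uniformly on soil over freshly sown seeds. Growth took place in a greenhouse at 25° C. to 30° C.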

windgrass = assay: Test Example 4: herbicidal effect by soil treatment (Table 19, symbol L); assay type: in vivo, windgrass (Apera spica-venti)
In short: as §1

Italian ryegrass = assay: Test Example 4: herbicidal effect by soil treatment (Table 19, symbol K); assay type: in vivo, Italian ryegrass (Lolium multiflorum)
In short: as §1

Chinese sprangletop = assay: Test Example 3: herbicidal effect by foliage application, Wagner pot (Table 18, symbol D); assay type: in vivo, chinese sprangletop (Leptochloa chinensis)
In short: (§2)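 Plants were sown in alluvial soil held under 0.1–0.5 cm standing water and grown 14 days in a greenhouse at 25–30 °C. An emulsifiable formulation, water-diluted to the set dose, was then sprayed onto the foliage, and effects were scored three weeks later using previously defined criteria.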

rice flat sedge = assay: Test Example 3: herbicidal effect by foliage application, Wagner pot (Table 18, symbol E); assay type: in vivo, rice flat sedge (Cyperus iria)
In short: as §2

blackgrass = assay: Test Example 4: herbicidal effect by soil treatment (Table 19, symbol J); assay type: in vivo, blackgrass (Alopecurus myosuroides)
In short: as §1

southern crabgrass = assay: Test Example 4: herbicidal effect by soil treatment (Table 19, symbol F); assay type: in vivo, southern crabgrass (Digitaria ciliaris)
In short: as §1

wild oat = assay: Test Example 4: herbicidal effect by soil treatment (Table 19, symbol I); assay type: in vivo, wild oat (Avena fatua)
In short: as §1

persian speedwell = assay: Test Example 4: herbicidal effect by soil treatment (Table 19, symbol R); assay type: in vivo, Persian speedwell (Veronica persica)
Excerpt: [Test Example 4] Herbicidal Effect Test by Soil Treatment
Sterilized diluvial soil was placed in a plastic box having a length of 21 cm, a width of 13 cm, and a depth of 7 cm. The seeds of each of southern crabgrass, green foxtail, barnyard grass, wild oat, blackgrass, Italian ryegrass, windgrass, velvetleaf, redroot pigweed, lambsquarters, chickweed, false cleavers, persian speedwell, corn, soybean, rice, wheat, beet, and rapeseed were sowed in a spot-like manner and covered with the soil having a thickness of about 1.5 cm. Subsequently, the emulsion agent of the compound of the present invention prepared according to Formulation Example 2 was diluted with water so as to achieve a predetermined herbicide amount, and the diluted emulsion agent was uniformly applied to the surface of the soil with a small-sized spray. The plastic box was placed in a greenhouse at 25° C. to 30° C. for growth of the plants. Three weeks after the herbicide application, the effect of the herbicide on each plant was evaluated according to the criteria of Test Example 1.

barnyard grass [1] = assay: Test Example 4: herbicidal effect by soil treatment (Table 19, symbol H); assay type: in vivo, barnyard grass (Echinochloa crus-galli)
In short: as §1

chickweed = assay: Test Example 4: herbicidal effect by soil treatment (Table 19, symbol P); assay type: in vivo, common chickweed (Stellaria media)
In short: as §1

redroot pigweed = assay: Test Example 4: herbicidal effect by soil treatment (Table 19, symbol N); assay type: in vivo, redroot pigweed (Amaranthus retroflexus)
In short: as §1

green foxtail = assay: Test Example 4: herbicidal effect by soil treatment (Table 19, symbol G); assay type: in vivo, green foxtail (Setaria viridis)
In short: as §1

lambsquarters = assay: Test Example 4: herbicidal effect by soil treatment (Table 19, symbol O); assay type: in vivo, lambsquarters (Chenopodium album)
In short: as §1

barnyard grass [2] = assay: Test Example 3: herbicidal effect by foliage application, Wagner pot (Table 18, symbol H); assay type: in vivo, barnyard grass (Echinochloa crus-galli)
In short: as §2

Structure (SMILES)	herbicidal effect, M: velvetleaf (velvetleaf)	herbicidal effect, L: windgrass (windgrass)	herbicidal effect, K: Italian ryegrass (Italian ryegrass)	herbicidal effect on D: Chinese sprangletop (Chinese sprangletop)	herbicidal effect on E: rice flat sedge (rice flat sedge)	herbicidal effect, J: blackgrass (blackgrass)	herbicidal effect, F: southern crabgrass (southern crabgrass)	herbicidal effect, I: wild oat (wild oat)	herbicidal effect, R: persian speedwell (persian speedwell)	herbicidal effect, H: barnyard grass (barnyard grass [1])	herbicidal effect, P: chickweed (chickweed)	herbicidal effect, N: redroot pigweed (redroot pigweed)	herbicidal effect, G: green foxtail (green foxtail)	herbicidal effect, O: lambsquarters (lambsquarters)	herbicidal effect on H: barnyard grass (barnyard grass [2])
CCCC(=O)Oc1c(C)nn(C)c(=O)c1-c1c(-c2cnccc2F)sc2ccc(F)cc12 [2-384]	2 (Herbicidal rate of 20% or more and less than 40%)	0 (Herbicidal rate of 5% or less (almost no effect))	4 (Herbicidal rate of 70% or more and less than 90%)	3 (Herbicidal rate of 40% or more and less than 70%)	3 (Herbicidal rate of 40% or more and less than 70%)	0 (Herbicidal rate of 5% or less (almost no effect))	3 (Herbicidal rate of 40% or more and less than 70%)	1 (Herbicidal rate of 5% or more and less than 20%)	4 (Herbicidal rate of 70% or more and less than 90%)	3 (Herbicidal rate of 40% or more and less than 70%)	4 (Herbicidal rate of 70% or more and less than 90%)	4 (Herbicidal rate of 70% or more and less than 90%)	4 (Herbicidal rate of 70% or more and less than 90%)	3 (Herbicidal rate of 40% or more and less than 70%)	3 (Herbicidal rate of 40% or more and less than 70%)
COc1cc(Cl)ccc1-c1sc2ccc(F)cc2c1-c1c(O)c(C)nn(C)c1=O [2-368]	0 (Herbicidal rate of 5% or less (almost no effect))	4 (Herbicidal rate of 70% or more and less than 90%)	0 (Herbicidal rate of 5% or less (almost no effect))	3 (Herbicidal rate of 40% or more and less than 70%)	3 (Herbicidal rate of 40% or more and less than 70%)	0 (Herbicidal rate of 5% or less (almost no effect))	0 (Herbicidal rate of 5% or less (almost no effect))	0 (Herbicidal rate of 5% or less (almost no effect))	0 (Herbicidal rate of 5% or less (almost no effect))	0 (Herbicidal rate of 5% or less (almost no effect))	0 (Herbicidal rate of 5% or less (almost no effect))	2 (Herbicidal rate of 20% or more and less than 40%)	0 (Herbicidal rate of 5% or less (almost no effect))	3 (Herbicidal rate of 40% or more and less than 70%)	4 (Herbicidal rate of 70% or more and less than 90%)

Reference: patent US20230085307A1, “PYRIDAZINONE COMPOUND AND HERBICIDE” (NISSAN CHEMICAL CORPORATION, priority 2019, published 2023)
